Earlier results on eight molecules are cited in patent publication US12605432B2, “Combinations for antigen based therapy” (Diamyd Medical AB, priority 2014, dated 2026).

Read-outs that look alike come from different tables or passages of the source.

The subject of one data set is DCs. The following applies: decreased CD40, CD80, CD86, low IL-12, enhanced IL-10 secretion.
In data set [1] the test system is mouse islet allografts; autoimmune diabetes.
The test system of data set [2] is B cells, dendritic cells and T cells.
For the next data set, the system named is T1D in NOD mice. The following applies: mouse, in vivo.
Data set [3] has as its system residual insulin secretion in T1D patients. As to conditions: in vivo.
The subject of data set [4] is blood glucose (BG) concentrations in patients. As to conditions: diabetic and nondiabetic patients in general clinical practice.

Consider `C=C1/C(=C\C=C2/CCC[C@]3(C)[C@@H]([C@H](C)CCCC(C)(C)O)CC[C@@H]23)C[C@@H](O)C[C@@H]1O` [1,25-Dihydroxyvitamin D(3)], for which the DC phenotype entry with DCs is on record as “induces DCs with a tolerogenic phenotype”. The “tolerance to islet allografts” value in [1] (mouse) was “induced tolerance to mouse islet allografts”. Further, in data set [1] (non-hypercalcemic doses), the diabetes development entry is “inhibited diabetes development”. In data set [2], the “expression of IL-10 by dendritic cells and T cells” value is recorded as “enhances”; the “expression of IgE by B cells” value is listed as “inhibits”.
As to `FC(F)(F)c1ccc(CNc2ccc(Cc3c[nH]c4ncccc34)cn2)cc1` [PLX647], the “effect on T1D in NOD mice” value with T1D in NOD mice was “only marginal efficacy”.
`CC1=NS(=O)(=O)c2cc(Cl)ccc2N1` [diazoxide]: the “effect of protective agents” value in [3] is reported as “no or transient effect”.
Turning to `CC(C)Cc1ccc(C(C)C(=O)O)cc1` (stereo not shown) [ibuprofen], in the data set with dendritic cells (DCs), the “expression level of total MHC molecules and co-stimulatory molecules on DCs” value was “increased”; the “phagocytic activity of DCs” value was “did not inhibit”. In the data set on dendritic cells (DCs) (dendritic cells), the “MHC class I and class II-restricted presentation of antigen” value is “inhibit MHC class I and class II-restricted presentation of antigen”.
For the molecule `Cc1ccc(NC(=O)c2ccc(CN3CCN(C)CC3)cc2)cc1Nc1nccc(-c2cccnc2)n1` [imatinib], the “effect on T1D in NOD mice” value with T1D in NOD mice is “prevented and reversed T1D”. Also, in the data set on macrophage cultures, the IL-10 secretion result was “induced secretion of anti-inflammatory IL-10”.
`NC(=O)c1cccnc1` [nicotinamide]: in data set [3], the “effect of protective agents” value is recorded as “no or transient effect”.
In the case of `CNC(=O)c1cc(Oc2ccc(NC(=O)Nc3ccc(Cl)c(C(F)(F)F)c3)cc2)ccn1` [sorafenib], the “blood glucose (BG)” value in data set [4] was “significant declines in BG”.
In the case of Insulin: β cell specific auto-antigen, the prevention of diabetes result is “may have a slight effect” in the data set with high risk individuals (oral administration) and “no effect” in the data set with high risk individuals (parenteral administration (DPT)).
